Assay results as given in patent US8530493B2, “Indolopyridines as Eg5 kinesin modulators” (4SC AG, priority 2006, dated 2013).

system: RKO p21 uninduced (proliferating) colon adenocarcinoma cells; test: Alamar Blue cell viability assay, RKO p21 uninduced (proliferating); format: cell-based; conditions: Homo sapiens, Table B3, anti-proliferative/cytotoxic activity, 72 hours, read-out: −log EC50 RKO p21 uninduced (proliferating) (converted)
Method in brief: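 Viability read by Alamar Blue fluorescence (ex 544, em 590 nm), normalised to untreated wells, after 72 h, 37° C, 5% CO2 compound exposure in triplicate. Cells were uninduced (no Ponasterone A), proliferating RKO colon carcinoma p27 or p21 subclones in DMEM with 10% FCS; values are −log EC50 (mol/l).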

Compound | EC50 [nM]
CCN(CCO)CCCN1C(=O)N2[C@H](c3cccc(O)c3)c3[nH]c4cc(F)c(Cl)cc4c3C[C@@]2(C)C1=O (racemic) [Example 470, (3aSR,10RS)-6-Chloro-2-{3-[ethyl-(2-hydroxy-ethyl)-amino]-propyl}-7-fluoro-10-(3-hydroxy-phenyl)-3a-methyl-3a,4,9,10-tetrahydro-2,9,10a-triaza-cyclopenta[b]fluorene-1,3-dione] | ≤ 39.8
C=CCN(C)CCN1C(=O)N2[C@H](c3cccc(O)c3)c3[nH]c4ccc(Br)cc4c3C[C@@]2(C)C1=O (racemic) [Example 381, (3aSR,10RS)-2-[2-(Allyl-methyl-amino)-ethyl]-6-bromo-10-(3-hydroxy-phenyl)-3a-methyl-3a,4,9,10-tetrahydro-2,9,10a-triaza-cyclopenta[b]fluorene-1,3-dione] | 39.8 to 251
CCNCCN1C(=O)N2[C@H](c3cccc(O)c3)c3[nH]c4ccc(OCC)cc4c3C[C@@]2(C)C1=O (racemic) [Example 296, (3aSR,10RS)-6-Ethoxy-2-(2-ethylamino-ethyl)-10-(3-hydroxy-phenyl)-3a-methyl-3a,4,9,10-tetrahydro-2,9,10a-triaza-cyclopenta[b]fluorene-1,3-dione] | ≤ 39.8
CCN(CC)CCCN1C(=O)N2[C@H](c3cccc(O)c3)c3[nH]c4cc(F)c(OC)cc4c3C[C@@]2(C)C1=O (racemic) [Example 313, (3aSR,10RS)-2-(3-Diethylamino-propyl)-7-fluoro-10-(3-hydroxy-phenyl)-6-methoxy-3a-methyl-3a,4,9,10-tetrahydro-2,9,10a-triaza-cyclopenta[b]fluorene-1,3-dione] | 39.8 to 251
COc1cc2c3c([nH]c2cc1F)[C@@H](c1cccc(O)c1)N1C(=O)N(CCCN2CCCC2)C(=O)[C@]1(C)C3 (racemic) [Example 322, (3aSR,10RS)-7-Fluoro-10-(3-hydroxy-phenyl)-6-methoxy-3a-methyl-2-(3-pyrrolidin-1-yl-propyl)-3a,4,9,10-tetrahydro-2,9,10a-triaza-cyclopenta[b]fluorene-1,3-dione] | 39.8 to 251
C=CCNCCCN1C(=O)N2[C@H](c3cccc(O)c3)c3[nH]c4ccc(OC)cc4c3C[C@@]2(C)C1=O [Example 533, (3aS,10R)-2-(3-Allylamino-propyl)-10-(3-hydroxy-phenyl)-6-methoxy-3a-methyl-3a,4,9,10-tetrahydro-2,9,10a-triaza-cyclopenta[b]fluorene-1,3-dione] | ≤ 39.8
CC(C)(C)NCCN1C(=O)N2[C@H](c3cccc(O)c3)c3[nH]c4ccc(OC(F)F)cc4c3C[C@@]2(C)C1=O (racemic) [Example 273, (3aSR,10RS)-2-(2-tert-Butylamino-ethyl)-6-(1,1-difluoro-methoxy)-10-(3-hydroxy-phenyl)-3a-methyl-3a,4,9,10-tetrahydro-2,9,10a-triaza-cyclopenta[b]fluorene-1,3-dione] | ≤ 39.8
C[C@@]12Cc3c([nH]c4ccc(Br)cc34)[C@@H](c3cccc(O)c3)N1C(=O)N(CCCN1CCCCC1)C2=O (racemic) [Example 373, (3aSR,10RS)-6-Bromo-10-(3-hydroxy-phenyl)-3a-methyl-2-(3-piperidin-1-yl-propyl)-3a,4,9,10-tetrahydro-2,9,10a-triaza-cyclopenta[b]fluorene-1,3-dione] | ≤ 39.8
C[C@@]12Cc3c([nH]c4ccc(OC(F)F)cc34)[C@@H](c3cccc(O)c3)N1C(=O)N(CCCN1CC=CC1)C2=O (racemic) [Example 238, (3aSR,10RS)-6-(1,1-Difluoro-methoxy)-2-[3-(2,5-dihydro-pyrrol-1-yl)-propyl]-10-(3-hydroxy-phenyl)-3a-methyl-3a,4,9,10-tetrahydro-2,9,10a-triaza-cyclopenta[b]fluorene-1,3-dione] | ≤ 39.8
COc1cc2c3c([nH]c2cc1F)[C@@H](c1cccc(O)c1)N1C(=O)N(CCCNCCO)C(=O)[C@]1(C)C3 (racemic) [Example 305, (3aSR,10RS)-7-Fluoro-2-[3-(2-hydroxy-ethylamino)-propyl]-10-(3-hydroyx-phenyl)-6-methoxy-3a-methyl-3a,4,9,10-tetrahydro-2,9,10a-triaza-cyclopenta[b]fluorene-1,3-dione] | 39.8 to 251
CCN(CCCN1C(=O)N2[C@H](c3cccc(O)c3)c3[nH]c4ccc(Br)cc4c3C[C@@]2(C)C1=O)CCOC (racemic) [Example 217, (3aSR,10RS)-6-Bromo-2-{3-[ethyl-(2-methoxy-ethyl)-amino]-propyl}-10-(3-hydroxy-phenyl)-3a-methyl-3a,4,9,10-tetrahydro-2,9,10a-triaza-cyclopenta[b]fluorene-1,3-dione] | ≤ 39.8
C[C@@]12Cc3c([nH]c4ccc(Cl)cc34)[C@@H](c3cccc(O)c3)N1C(=O)N(CCCN1CCCC1)C2=O (racemic) [Example 172, (3aSR,10RS)-6-Chloro-10-(3-hydroxy-phenyl)-3a-methyl-2-(3-pyrrolidin-1-yl-propyl)-3a,4,9,10-tetrahydro-2,9,10a-triaza-cyclopenta[b]fluorene-1,3-dione] | ≤ 39.8
CCN(CCO)CCCN1C(=O)N2[C@H](c3cccc(O)c3)c3[nH]c4ccc(Cl)cc4c3C[C@@]2(C)C1=O (racemic) [Example 168, (3aSR,10RS)-6-Chloro-2-{3-[ethyl-(2-hydroxy-ethyl)-amino]-propyl}-10-(3-hydroxy-phenyl)-3a-methyl-3a,4,9,10-tetrahydro-2,9,10a-triaza-cyclopenta[b]fluorene-1,3-dione] | ≤ 39.8
CN1CCN(CCN2C(=O)N3[C@H](c4cccc(O)c4)c4[nH]c5ccc(Br)cc5c4C[C@@]3(C)C2=O)CC1 (racemic) [Example 386, (3aSR,10RS)-6-Bromo-10-(3-hydroxy-phenyl)-3a-methyl-2-[2-(4-methyl-piperazin-1-yl)-ethyl]-3a,4,9,10-tetrahydro-2,9,10a-triaza-cyclopenta[b]fluorene-1,3-dione] | ≤ 39.8
CC(C)(C)NCCCN1C(=O)N2[C@H](c3cccc(O)c3)c3[nH]c4cc(F)c(Cl)cc4c3C[C@@]2(C)C1=O (racemic) [Example 464, (3aSR,10RS)-2-(3-tert-Butylamino-propyl)-6-chloro-7-fluoro-10-(3-hydroxy-phenyl)-3a-methyl-3a,4,9,10-tetrahydro-2,9,10a-triaza-cyclopenta[b]fluorene-1,3-dione] | 39.8 to 251
C[C@@]12Cc3c([nH]c4cc(F)c(Cl)cc34)[C@@H](c3cccc(O)c3)N1C(=O)N(CCCNC1CCC1)C2=O (racemic) [Example 463, (3aSR,10RS)-6-Chloro-2-(3-cyclobutylamino-propyl)-7-fluoro-10-(3-hydroxy-phenyl)-3a-methyl-3a,4,9,10-tetrahydro-2,9,10a-triaza-cyclopenta[b]fluorene-1,3-dione] | 39.8 to 251
COc1cc2c3c([nH]c2cc1F)[C@@H](c1cccc(O)c1)N1C(=O)N(CCNC(C)C)C(=O)[C@]1(C)C3 (racemic) [Example 250, (3aSR,10RS)-7-Fluoro-10-(3-hydroxy-phenyl)-2-(2-isopropylamino-ethyl)-6-methoxy-3a-methyl-3a,4,9,10-tetrahydro-2,9,10a-triaza-cyclopenta[b]fluorene-1,3-dione] | ≤ 39.8
COc1cc2c3c([nH]c2cc1F)[C@@H](c1cccc(O)c1)N1C(=O)N(CCN(C)C)C(=O)[C@]1(C)C3 (racemic) [Example 255, (3aSR,10RS)-2-(2-Dimethylamino-ethyl)-7-fluoro-10-(3-hydroxy-phenyl)-6-methoxy-3a-methyl-3a,4,9,10-tetrahydro-2,9,10a-triaza-cyclopenta[b]fluorene-1,3-dione] | 39.8 to 251
C=CCN(C)CCN1C(=O)N2[C@H](c3cccc(O)c3)c3[nH]c4ccc(OCC)cc4c3C[C@@]2(C)C1=O (racemic) [Example 300, (3aSR,10RS)-2-[2-(Allyl-methyl-amino)-ethyl]-6-ethoxy-10-(3-hydroxy-phenyl)-3a-methyl-3a,4,9,10-tetrahydro-2,9,10a-triaza-cyclopenta[b]fluorene-1,3-dione] | 39.8 to 251
CCOc1ccc2[nH]c3c(c2c1)C[C@@]1(C)C(=O)N(CCNC2CCC2)C(=O)N1[C@@H]3c1cccc(O)c1 (racemic) [Example 155, (3aSR,10RS)-2-(2-Cyclobutylamino-ethyl)-6-ethoxy-10-(3-hydroxy-phenyl)-3a-methyl-3a,4,9,10-tetrahydro-2,9,10a-triaza-cyclopenta[b]fluorene-1,3-dione] | ≤ 39.8
CCOc1ccc2[nH]c3c(c2c1)C[C@@]1(C)C(=O)N(CCN(CC)CC)C(=O)N1[C@@H]3c1cccc(O)c1 (racemic) [Example 162, (3aSR,10RS)-2-(2-Diethylamino-ethyl)-6-ethoxy-10-(3-hydroxy-phenyl)-3a-methyl-3a,4,9,10-tetrahydro-2,9,10a-triaza-cyclopenta[b]fluorene-1,3-dione] | 39.8 to 251
CN(C)CCCN1C(=O)N2[C@H](c3cccc(O)c3)c3[nH]c4cc(F)c(Cl)cc4c3C[C@@]2(C)C1=O (racemic) [Example 335, (3aSR,10RS)-6-Chloro-2-(3-dimethylamino-propyl)-7-fluoro-10-(3-hydroxy-phenyl)-3a-methyl-3a,4,9,10-tetrahydro-2,9,10a-triaza-cyclopenta[b]fluorene-1,3-dione] | 39.8 to 251
CNCCN1C(=O)N2[C@H](c3cccc(O)c3)c3[nH]c4ccc(OC)c(F)c4c3C[C@@]2(C)C1=O (racemic) [Example 406, (3aSR,10RS)-5-Fluoro-10-(3-hydroxy-phenyl)-6-methoxy-3a-methyl-2-(2-methylamino-ethyl)-3a,4,9,10-tetrahydro-2,9,10a-triaza-cyclopenta[b]fluorene-1,3-dione] | 39.8 to 251
CCOc1ccc2[nH]c3c(c2c1)C[C@@]1(C)C(=O)N(CCCN2CCCCCC2)C(=O)N1[C@@H]3c1cccc(O)c1 (racemic) [Example 210, (3aSR,10RS)-2-(3-Azepan-1-yl-propyl)-6-ethoxy-10-(3-hydroxy-phenyl)-3a-methyl-3a,4,9,10-tetrahydro-2,9,10a-triaza-cyclopenta[b]fluorene-1,3-dione] | 39.8 to 251
